According to paper PMC3635066 (Journal of medicinal chemistry, 2012):

Legend:
[1] = Mouse liver microsomal stability; format: in vitro ADME
recombinant CpIMPDH = target: T1, recombinant CpIMPDH (Cryptosporidium parvum, UniProt Q8T6T2); assay: biochemical; format: biochemical; conditions: for increase in potency: relative to compound 1
T1 sequence (Q8T6T2 1-400): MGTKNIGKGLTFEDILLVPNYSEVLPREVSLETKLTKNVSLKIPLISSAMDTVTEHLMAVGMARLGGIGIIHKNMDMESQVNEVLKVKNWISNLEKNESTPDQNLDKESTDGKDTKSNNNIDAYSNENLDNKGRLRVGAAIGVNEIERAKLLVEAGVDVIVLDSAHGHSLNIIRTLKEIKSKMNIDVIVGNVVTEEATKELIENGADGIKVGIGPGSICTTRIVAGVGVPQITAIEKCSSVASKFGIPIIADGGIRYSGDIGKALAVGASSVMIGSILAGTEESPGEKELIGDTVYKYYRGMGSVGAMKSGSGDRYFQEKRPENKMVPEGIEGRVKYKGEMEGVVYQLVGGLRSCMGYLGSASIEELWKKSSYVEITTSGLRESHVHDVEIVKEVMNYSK

CpIMPDH inhibitory activity (in words) (recombinant CpIMPDH) | Structure (SMILES) | also measured
 | CO/N=C(\C)c1cccc(C(C)(C)NC(=O)Nc2ccc(Cl)c(C(F)(F)F)c2)c1 [Compound 8a, (E)-1-(4-Chloro-3-(trifluoromethyl)phenyl)-3-(2-(3-(1-(methoxyimino)ethyl)phenyl)propan-2-yl)urea] | mouse liver microsomal stability (in words) [1]: less stable
 | C=C(C)c1cccc(C(C)(C)NC(=O)Nc2ccc(Cl)cc2)c1 [Compound 5b, 1-(4-chlorophenyl)-3-(2-(3-(prop-1-en-2-yl)phenyl)propan-2-yl)urea] | increase in potency (recombinant CpIMPDH): 16 fold
 | CC(=O)c1cccc(C(C)(C)NC(=O)Nc2ccc(Cl)c(C(N)=O)c2)c1 [Compound 6c, 5-(3-(2-(3-acetylphenyl)propan-2-yl)ureido)-2-chlorobenzamide] | mouse liver microsomal stability (in words) [1]: very resistant to oxidative degradation in microsomes
completely inactive | C=C(C)c1cccc(C(C)(C)NC(=O)Nc2ccccc2Cl)c1 [Compound 5e, 1-(2-Chlorophenyl)-3-(2-(3-(prop-1-en-2-yl)phenyl)propan-2-yl)urea] | 
 | CC(=O)c1cccc(C(C)(C)OC(=O)Nc2ccc(Cl)cc2)c1 [Compound 28, 2-(3-Acetylphenyl) propan-2-yl (4-chlorophenyl)carbamate] | reduction in activity (recombinant CpIMPDH; relative to 6a): 2 fold
complete loss of activity | CC(=O)c1cccc(CNC(=O)Nc2ccc(Cl)cc2)c1 [Compound 23, 1-(3-Acetylbenzyl)-3-(4-chlorophenyl) urea] | 
 | C=C(C)c1cccc(C(C)(C)NC(=O)Nc2cccc(Cl)c2)c1 [Compound 5d, 1-(3-Chlorophenyl)-3-(2-(3-(prop-1-en-2-yl)phenyl)propan-2-yl)urea] | loss of activity (recombinant CpIMPDH; relative to 5b): 3 fold
complete loss of inhibitory activity | CC(C)(NC(=O)Nc1ccc2[nH]c(=O)[nH]c2c1)c1ccccc1 [Compound 38, 1-(2-Oxo-2,3-dihydro-1H-benzo[d]imidazol-5-yl)-3-(2-phenylpropan 2 yl)urea] | 
complete loss of inhibitory activity | CC(C)(NC(=O)Nc1ccc(Cl)cc1)c1ccc(-c2ccccc2)cc1 [Compound 36b, 1-(2-([1,1′-Biphenyl]-4-yl)propan-2-yl)-3-(4-chlorophenyl)urea] | 
 | C/C(=N\O)c1cccc(C(C)(C)NC(=O)Nc2ccc(Cl)c(C(N)=O)c2)c1 [Compound 7c, (E) 2 chloro 5-(3-(2-(3-(1-(hydroxyimino)ethyl)phenyl)propan-2-yl)ureido)benzamide] | IC50 (recombinant CpIMPDH): ≤ 1 nM
 | C=C(C)c1cccc(C(C)(C)NC(=O)Nc2ccc(Br)cc2)c1 [Compound 5c, 1-(4-Bromophenyl)-3-(2-(3-(prop-1-en-2-yl)phenyl)propan-2-yl)urea] | increase in potency (recombinant CpIMPDH): 32 fold
lacking activity | C=C(C)c1cccc(C(C)(C)NC(=O)Nc2ccc(C(C)(C)C)cc2)c1 [Compound 5g, 1-(4-(tert-Butyl)phenyl)-3-(2-(3-(prop-1-en-2-yl)phenyl)propan-2-yl)urea] | 
 | C/C(=N\OCCN)c1cccc(C(C)(C)NC(=O)Nc2ccc(Cl)c([N+](=O)[O-])c2)c1 [Compound 9, (E)-1-(2-(3-(1-((2-aminoethoxy)imino)ethyl)phenyl)propan-2-yl)-3 (4-chloro-3-nitrophenyl)urea] | mouse liver microsomal stability (in words) [1]: excellent mouse liver microsomal stability
complete loss of inhibitory activity | CC(C)c1cccc(C(C)(C)NC(=O)Nc2ccc3ccccc3c2)c1 [Compound 11, 1-(2-(3-Isopropylphenyl)propan-2-yl)-3-(naphthalen-2-yl)urea] | 

Structure (SMILES) | CpIMPDH inhibitory activity (in words) (recombinant CpIMPDH) | also measured
CC(C)(NC(=O)Nc1ccc(Cl)c(C(N)=O)c1)c1cccc(-c2ccccc2)c1 [Compound 36a, 5-(3-(2-([1, 1′-biphenyl]-3-yl)propan-2-yl)ureido)-2-chlorobenzamide] | retained potent activity | 
CC(O)c1cccc(C(C)(C)NC(=O)Nc2ccc(Cl)cc2)c1 (stereo not shown) [Compound 10, 1-(4-chlorophenyl)-3-(2-(3-(1-hydroxyethyl)phenyl)propan-2-yl)urea] | moderate activity | 
